Measurements as given in article PMC9377102, “Toxicity and toxicokinetics of the ethanol extract of Zuojin formula” (BMC Complementary Medicine and Therapies, 2022).
Read-outs that look alike come from different tables or passages of the source.

How the values were obtained:
[1] = Toxicokinetics test in the satellite groups (UPLC-MS/MS of rat plasma); assay type: in vivo
Method: SD rats (5 ~ 6 weeks, 3/group/sex) were randomly allocated to three treatment groups and given the same dosage as those in the repeated toxicity experiment for 28 days. […] Carbamazepine was chosen as the internal standard (IS). The blood samples were centrifuged to obtain plasma. Then, 300 μL of acetonitrile containing 40 ng of IS was added to 100 μL of plasma. After vortexing for 1 min, the mixture was centrifuged at 17,000 rpm for 15 min at 4 °C. The supernatant of each sample was injected into a UPLC–MS/MS system for determination. The injection volume was 1 μL. UPLC–MS analysis was performed on a Thermo Fisher Scientific Ultimate 3000 UPLC system (San Jose, USA) and an API 4000 QTRAP mass spectrometer (Foster City, USA) equipped with an ESI source. The mobile phase consisted of 2 solvents: (A) water containing 0.1% formic acid and (B) 100% acetonitrile. For MS, multiple reaction monitoring (MRM) in positive ion mode was used as the scanning mode for the main components and IS in the plasma samples. The dwell time (DT), collision energy (CE), quadrupole 1 pre-rod bias (Q1) and quadrupole 3 pre-rod bias (Q3) are listed in Table 3.

[2] = system: CYP3A4, CYP1A2 and CYP2D6; details: cited from earlier work
[3] = system: CYP3A4, CYP1A2 and CYP2D6; details: cited from earlier work; remark: listed apart in the source
[4] = system: CD4+ Th, CD4+CXCR5+ Tfh cells and Foxp3+ Tregs; details: mice, intraperitoneal injection 1 mg/kg; cited from earlier work
spleen = details: mice, intraperitoneal injection 10 mg/kg; cited from earlier work
[5] = cited from earlier work
[6] = system: diarrhoea-predominant irritable bowel syndrome; details: rats, 50 and 100 mg/kg for 14 days; cited from earlier work
[7] = system: thyroid hormone-induced diarrhoea; details: rats, 60 mg/kg oral gavage for 7 days; cited from earlier work
[8] = female rats, Day 1, high dose TAZF 3.7 g/kg by gavage
[9] = female rats, Day 1, highest dose (berberine 72.08, epiberberine 7.42, coptisine 7.42, palmatine 18.26, jatrorrhizine 2.80, columbamine 5.93 mg/kg)
[10] = female rats, Day 1, low dose TAZF 0.4 g/kg by gavage
[11] = female rats, Day 1, lowest dose (berberine 8.01, epiberberine 0.82, coptisine 1.38, palmatine 2.03, jatrorrhizine 0.31, columbamine 0.66 mg/kg)
[12] = female rats, Day 1, middle dose (berberine 24.03, epiberberine 2.47, coptisine 2.47, palmatine 6.09, jatrorrhizine 0.93, columbamine 1.98 mg/kg)
[13] = female rats, Day 28, high dose TAZF 3.7 g/kg by gavage
[14] = female rats, Day 28, highest dose (berberine 72.08, epiberberine 7.42, coptisine 7.42, palmatine 18.26, jatrorrhizine 2.80, columbamine 5.93 mg/kg)
[15] = female rats, Day 28, low dose TAZF 0.4 g/kg by gavage
[16] = female rats, Day 28, lowest dose (berberine 8.01, epiberberine 0.82, coptisine 1.38, palmatine 2.03, jatrorrhizine 0.31, columbamine 0.66 mg/kg)
[17] = female rats, Day 28, middle dose (berberine 24.03, epiberberine 2.47, coptisine 2.47, palmatine 6.09, jatrorrhizine 0.93, columbamine 1.98 mg/kg)
[18] = male rats, Day 1, high dose TAZF 3.7 g/kg by gavage
[19] = male rats, Day 1, highest dose (berberine 72.08, epiberberine 7.42, coptisine 7.42, palmatine 18.26, jatrorrhizine 2.80, columbamine 5.93 mg/kg)
[20] = male rats, Day 1, low dose TAZF 0.4 g/kg by gavage
[21] = male rats, Day 1, lowest dose (berberine 8.01, epiberberine 0.82, coptisine 1.38, palmatine 2.03, jatrorrhizine 0.31, columbamine 0.66 mg/kg)
[22] = male rats, Day 1, middle dose (berberine 24.03, epiberberine 2.47, coptisine 2.47, palmatine 6.09, jatrorrhizine 0.93, columbamine 1.98 mg/kg)
[23] = male rats, Day 28, high dose TAZF 3.7 g/kg by gavage
[24] = male rats, Day 28, highest dose (berberine 72.08, epiberberine 7.42, coptisine 7.42, palmatine 18.26, jatrorrhizine 2.80, columbamine 5.93 mg/kg)
[25] = male rats, Day 28, low dose TAZF 0.4 g/kg by gavage
[26] = male rats, Day 28, lowest dose (berberine 8.01, epiberberine 0.82, coptisine 1.38, palmatine 2.03, jatrorrhizine 0.31, columbamine 0.66 mg/kg)
[27] = male rats, Day 28, middle dose (berberine 24.03, epiberberine 2.47, coptisine 2.47, palmatine 6.09, jatrorrhizine 0.93, columbamine 1.98 mg/kg)
[28] = female SD rats, pure berberine 90 mg/kg orally, previous study, reference not given
[29] = male rats, pure berberine 90 mg/kg

Structure (SMILES): O=c1c2ccccc2nc2n1CCc1c-2[nH]c2ccccc12 [rutaecarpine]
- Level in plasma ([1]; both, SD, rat, in vivo, po): < 0.5 ng/mL

Structure (SMILES): COc1cc2c(cc1OC)-c1cc3ccc4c(c3c[n+]1CC2)OCO4 [epiberberine]
- 28-day AUC relative to the first day ([1]; rat, in vivo): 1 to 2 times
- Inhibition of CYP3A4, CYP1A2 and CYP2D6 [2]: inhibited

Structure (SMILES): COc1cc2c(cc1OC)-c1cc3ccc(OC)c(OC)c3c[n+]1CC2 [palmatine]
- AUC(0-t) [1, 8]: 38.00 ± 16.92 ng·h/mL
- Cmax [1, 8]: 46.60 ± 27.16 ng/mL
- Cmax mean [1, 9]: 46.60 ng/mL
- T1/2 mean [1, 9]: 5.18 h
- Tmax mean [1, 9]: 0.50 h
- AUC(0-t) [1, 10]: 18.08 ± 4.07 ng·h/mL
- Cmax [1, 10]: 27.93 ± 13.97 ng/mL
- Cmax mean [1, 11]: 27.93 ng/mL
- T1/2 mean [1, 11]: 5.96 h
- Tmax mean [1, 11]: 0.42 h
- AUC0-t mean [1, 12]: 90.31 ng·h/mL
- Cmax mean [1, 12]: 77.60 ng/mL
- T1/2 mean [1, 12]: 3.29 h
- Tmax mean [1, 12]: 0.83 h
- AUC(0-t) [1, 13]: 24.07 ± 12.21 ng·h/mL
- Cmax [1, 13]: 5.67 ± 2.58 ng/mL
- Cmax mean [1, 14]: 5.67 ng/mL
- T1/2 mean [1, 14]: 3.98 h
- Tmax mean [1, 14]: 0.83 h
- AUC(0-t) [1, 15]: 116.47 ± 138.20 ng·h/mL
- Cmax [1, 15]: 55.94 ± 72.88 ng/mL
- Cmax mean [1, 16]: 55.94 ng/mL
- T1/2 mean [1, 16]: 80.32 h
- Tmax mean [1, 16]: 0.42 h
- AUC0-t mean [1, 17]: 14.65 ng·h/mL
- Cmax mean [1, 17]: 4.16 ng/mL
- T1/2 mean [1, 17]: 9.33 h
- Tmax mean [1, 17]: 1.33 h
- AUC(0-t) [1, 18]: 342.51 ± 66.62 ng·h/mL
- Cmax [1, 18]: 51.33 ± 17.52 ng/mL
- Cmax mean [1, 19]: 51.33 ng/mL
- T1/2 mean [1, 19]: 10.38 h
- Tmax mean [1, 19]: 3.33 h
- AUC(0-t) [1, 20]: 236.12 ± 103.55 ng·h/mL
- Cmax [1, 20]: 52.47 ± 52.73 ng/mL
- Cmax mean [1, 21]: 52.47 ng/mL
- T1/2 mean [1, 21]: 12.88 h
- Tmax mean [1, 21]: 3.33 h
- AUC0-t mean [1, 22]: 318.68 ng·h/mL
- Cmax mean [1, 22]: 71.53 ng/mL
- T1/2 mean [1, 22]: 26.57 h
- Tmax mean [1, 22]: 0.67 h
- AUC(0-t) [1, 23]: 110.18 ± 34.30 ng·h/mL
- Cmax [1, 23]: 32.93 ± 24.17 ng/mL
- Cmax mean [1, 24]: 32.93 ng/mL
- T1/2 mean [1, 24]: 11.01 h
- Tmax mean [1, 24]: 4.08 h
- AUC(0-t) [1, 25]: 36.98 ± 18.55 ng·h/mL
- Cmax [1, 25]: 67.20 ± 74.82 ng/mL
- Cmax mean [1, 26]: 67.20 ng/mL
- T1/2 mean [1, 26]: 12.22 h
- Tmax mean [1, 26]: 0.83 h
- AUC0-t mean [1, 27]: 102.21 ng·h/mL
- Cmax mean [1, 27]: 22.63 ng/mL
- T1/2 mean [1, 27]: 2.90 h
- Tmax mean [1, 27]: 12.00 h
- Systemic exposure after 28 days of administration vs single administration ([1]; rats, oral TAZF): much lower
- Metabolism by CYP3A4, CYP1A2 and CYP2D6 [3]: metabolized

Structure (SMILES): COc1ccc2cc3[n+](cc2c1OC)CCc1cc2c(cc1-3)OCO2 [berberine]
- T cell subset levels [4]: reduced levels of CD^4+ Th and CD^4+CXCR^5+ Tfh cells and an increased level of Foxp^3+ Tregs
- Immunosuppressive effect and spleen weight (spleen): strong immunosuppressive effect and reduced spleen weight
- AUC(0-t) ([1]; female, SD, rat, plasma, po, 0.4 g/kg, female rats, Day 1, low dose TAZF 0.4 g/kg by gavage, read-out: AUC0-t): 122 ± 17.1 ng·h/mL
- Cmax ([1]; female, SD, rat, plasma, po, 0.4 g/kg, female rats, Day 1, low dose TAZF 0.4 g/kg by gavage, read-out: Cmax): 149 ± 73 ng/mL
- AUC(0-t) ([1]; female, SD, rat, plasma, po, 0.4 g/kg, female rats, Day 28, low dose TAZF 0.4 g/kg by gavage, read-out: AUC0-t): 838 ± 949 ng·h/mL
- Cmax ([1]; female, SD, rat, plasma, po, 0.4 g/kg, female rats, Day 28, low dose TAZF 0.4 g/kg by gavage, read-out: Cmax): 324 ± 432 ng/mL
- AUC(0-t) ([1]; female, SD, rat, plasma, po, 3.7 g/kg, female rats, Day 1, high dose TAZF 3.7 g/kg by gavage, read-out: AUC0-t): 306 ± 94.7 ng·h/mL
- Cmax ([1]; female, SD, rat, plasma, po, 3.7 g/kg, female rats, Day 1, high dose TAZF 3.7 g/kg by gavage, read-out: Cmax): 219 ± 118 ng/mL
- AUC(0-t) ([1]; female, SD, rat, plasma, po, 3.7 g/kg, female rats, Day 28, high dose TAZF 3.7 g/kg by gavage, read-out: AUC0-t): 153 ± 53.7 ng·h/mL
- Cmax ([1]; female, SD, rat, plasma, po, 3.7 g/kg, female rats, Day 28, high dose TAZF 3.7 g/kg by gavage, read-out: Cmax): 23.8 ± 6.25 ng/mL
- AUC(0-t) ([1]; male, SD, rat, plasma, po, 0.4 g/kg, male rats, Day 1, low dose TAZF 0.4 g/kg by gavage, read-out: AUC0-t): 1220 ± 389 ng·h/mL
- Cmax ([1]; male, SD, rat, plasma, po, 0.4 g/kg, male rats, Day 1, low dose TAZF 0.4 g/kg by gavage, read-out: Cmax): 222 ± 180 ng/mL
- AUC(0-t) ([1]; male, SD, rat, plasma, po, 0.4 g/kg, male rats, Day 28, low dose TAZF 0.4 g/kg by gavage, read-out: AUC0-t): 699 ± 644 ng·h/mL
- Cmax ([1]; male, SD, rat, plasma, po, 0.4 g/kg, male rats, Day 28, low dose TAZF 0.4 g/kg by gavage, read-out: Cmax): 460 ± 276 ng/mL
- AUC(0-t) ([1]; male, SD, rat, plasma, po, 3.7 g/kg, male rats, Day 1, high dose TAZF 3.7 g/kg by gavage, read-out: AUC0-t): 1860 ± 425 ng·h/mL
- Cmax ([1]; male, SD, rat, plasma, po, 3.7 g/kg, male rats, Day 1, high dose TAZF 3.7 g/kg by gavage, read-out: Cmax): 219 ± 24.4 ng/mL
- AUC(0-t) ([1]; male, SD, rat, plasma, po, 3.7 g/kg, male rats, Day 28, high dose TAZF 3.7 g/kg by gavage, read-out: AUC0-t): 608 ± 203 ng·h/mL
- Cmax ([1]; male, SD, rat, plasma, po, 3.7 g/kg, male rats, Day 28, high dose TAZF 3.7 g/kg by gavage, read-out: Cmax): 136 ± 77.9 ng/mL
- Systemic exposure after 28 days of administration vs single administration ([1]; rats, oral TAZF): much lower
- Inhibition of CYP3A4, CYP1A2 and CYP2D6 [2]: inhibited
- AUC0–36 [5, 28]: 88.8 ng·h/mL
- Cmax [5, 28]: 29.2 ng/mL
- AUC0–60 [5, 29]: 305.8 ng·h/mL
- Cmax [5, 29]: 28.2 ng/mL
- Effect on diarrhoea-predominant irritable bowel syndrome [6]: improve diarrhoea-predominant irritable bowel syndrome
- Metabolism by CYP3A4, CYP1A2 and CYP2D6 [3]: metabolized
- Effect on thyroid hormone-induced diarrhoea [7]: effect was also observed

Structure (SMILES): c1c2c(cc3c1OCO3)-c1cc3ccc4c(c3c[n+]1CC2)OCO4 [coptisine]
- Cmax ([1]; male, SD, rat, in vivo, po, 0.4 g/kg): 45.49 ± 57.63 ng/mL
- Cmax ([1]; male, SD, rat, in vivo, po, 0.4 g/kg, Cmax): 32.4 ± 33 ng/mL
- Cmax ([1]; male, SD, rat, in vivo, po, 3.7 g/kg): 20.05 ± 13.57 ng/mL
- Cmax ([1]; male, SD, rat, in vivo, po, 3.7 g/kg, Cmax): 32.3 ± 9.08 ng/mL
- Systemic exposure after 28 days of administration vs single administration ([1]; rat, in vivo, po): much lower
